# From patent US7544512B2, “Method of producing insulinotropic GLP-1 (7-36) polypeptide and/or GLP-1 analogs” (Shanhai Hua Yi Bio-Tech Lab, priority 2001, dated 2009)
# How the values were obtained:
# Type in all cases: in vivo
# [1] = test system: insulin secretion; assay: Effect on insulin secretion in mice (serum insulin, radioimmunoassay); conditions: healthy C57/BL/6J mice, 2 μg injected into abdominal cavity, blood at 0, 5, 15, 30, 60 min, FIG. 9
# Description: Healthy C57/BL/6J mice were purchased from the Shanghai Laboratory Animal Center of Chinese Academy of Sciences. The mice were divided into three groups with 6 mice in each group. The placebo group of mice received 200 μl of saline injected into their abdominal cavity, while the testing group received 2 μg of GLP-1 (7-36) and the positive control group received 2 μg of GLP-1 (7-36)NH2 (BACHEM). The moment when the animals received the injection was set as time zero. 50 μl of blood were drawn from the veins at angulus oculi with a graduated capillary which had been rinsed with heparin and then dried. The blood samples were subsequently drawn at 5, 15, 30 and 60 minutes. The blood samples were immediately mixed with 50 μl of saline in a micro-centrifuge tube. The mixture was centrifuged at 3000 rpm to remove erythrocytes. The serum was used to measure insulin concentration.
# The radioimmunoassay kit (Shanghai Institute of Biological Products, Chinese Ministry of Health) for insulin was used to measure the effect of GLP-1 (7-36) on insulin secretion. […] This observation indicates the administration of either GLP-1 (7-36) or GLP-1 (7-36)NH2 enhances the secretion of insulin in mice.
# [2] = test system: blood glucose; assay: Comparison of reducing blood glucose effect in Kun Ming mice; conditions: fasted 4 hours, glucose 2 g/kg intraperitoneally, 50 ng/Kg peptide, 30 minutes; for Rate (reduction of blood glucose): versus control
# Description: Kun Ming mice (40 in total, male, 23 g body weight/mouse) were divided into 4 groups. After fasting for 4 hours, each mouse was injected with glucose (2 g/kg body weight) intraperitoneally. Then mice in the testing group were rejected with 50 ng/Kg of GLP-1 (7-36), GLP-1 (7-36)NH2 (BACHEM) and GLP-1 (7-37)COOH (BACHEM) respectively, while mice in the control group were rejected with 0.9% NaCl saline. Blood sample was collected at the zero time and 30 minutes later for the analysis.
# [3] = test system: blood glucose; assay: Effect on blood glucose level in glucose-loaded C57/BL/6J mice; conditions: C57/BL/6J mice fasted overnight, 200 μl of 40% glucose plus 2 μg peptide into abdominal cavity, 0, 30, 60, 120 min, FIG. 11
# Description: Healthy C57/BL/6J mice were purchased from Shanghai Laboratory Animal Center of Chinese Academy of Sciences. The mice were divided into four groups with 6 mice in each group. Mice fasted overnight were injected by abdominal cavity. The placebo group were injected with 200 μl of 40% glucose solution, the testing group were injected with 200 μl of 40% glucose solution plus 2 μg of GLP-1 (7-36), the positive control group(I) were injected with 200 μl of 40% glucose solution plus 2 μg of GLP-1 (7-36)NH2 (Sigma), and the positive control group(II) were injected with 200 μl of 40% glucose solution plus 2 μg of GLP-1 (7-37) (Sigma). The moment when the animals received the injection was set as time zero. After the injection, 20 μl of blood sample were immediately drawn from optic sinus of each mouse with a heparin-treated capillary. The blood samples were immediately mixed with 300 μl of saline in a micro-centrifuge tube. The mixture was centrifuged at 3000 rpm to remove erythrocytes. The serum was used to measure serum glucose concentration. This procedure was repeated at the 30th, 60th and 120th minutes.
# The serum blood glucose concentration was measured by a commercial kit (Shanghai Institute of Biological Products, Chinese Ministry of Health).
# [4] = test system: C-peptide secretion; assay: Effect on C-peptide secretion in mice (serum C-peptide, radioimmunoassay); conditions: C57/BL/6J mice, 10 μg injected into abdominal cavity, FIG. 10
# Description: As described in Example 14, C57/BL/6J mice were divided into two groups with the placebo group receiving 200 μl of saline injected into abdominal cavity and the testing group receiving 10 μg of GLP-1 (7-36). A radioimmunoassay kit (Shanghai Institute of Biological Products, Chinese Ministry of Health) for C-peptide was used to measure the effect of GLP-1 (7-36) on C-peptide secretion.
substance,measurement,setting,value
GLP-1 (7-36)NH2: natural GLP-1 form of 30 amino acid residues with C-terminal amidated; positive control from BACHEM or Sigma,serum insulin concentration,[1],significant increase
same,Blood Glucose,[2],8.69 mmol/L
same,Rate (reduction of blood glucose),[2],36.8%
same,serum blood glucose concentration,[3],no obvious rise from the normal level
GLP-1 (7-37): natural GLP-1 form of 31 amino acid residues; positive control from Sigma or BACHEM (HAEGTFTSDVSSYLEGQAAKEFIAWLVKGRG; homo sapiens),Blood Glucose,[2],6.77 mmol/L
same,Rate (reduction of blood glucose),[2],50.7%
same,serum blood glucose concentration,[3],no obvious rise from the normal level
His-Ala-Glu-Gly-Thr-Phe-Thr-Ser-Asp-Val-Ser-Ser-Tyr-Leu-Glu-Gly-Gln-Ala-Ala-Lys-Glu-Phe-Ile-Ala-Trp-Leu-Val-Lys-Gly-Arg−OH (HAEGTFTSDVSSYLEGQAAKEFIAWLVKGR; homo sapiens) [GLP-1 (7-36)],serum insulin concentration,[1],significant increase
same,serum C-peptide concentration,[4],significant increase
same,Blood Glucose,[2],6.51 mmol/L
same,Rate (reduction of blood glucose),[2],50.4%
same,serum blood glucose concentration,[3],no obvious rise from the normal level
